Test results taken from patent US5798375A, “Treatment of arteriosclerosis and xanthoma” (Sankyo Company, Limited, priority 1995, dated 1998).

Tests used:
[1] = tested on: Male Fl b hamsters; assay: Example 4: regression of preformed atherosclerosis in hamsters (Oil Red O stained area); assay type: in vivo
Experimental: Synergism of HMG CoA reductase inhibitors and thiazolidinedione insulin sensitizers was examined by another regression model, i.e. the regression of preformed atherosclerosis in hamsters. Male Fl b hamsters (weight about 130 g,) were given a diet containing 0.05% cholesterol for 13 weeks. They were grouped randomly (2-7 animals per group), and then the test samples were administered for 4 weeks while the hamsters were given a normolipidaemic diet. Pravastatin and fluvastatin were mixed with drinking water at the dose of 3 mg/kg and 1.5 mg/kg, respectively, while troglitazone was mixed with the diet at the dose of 30 mg/kg or 100 mg/kg.
In the case of the combination groups, the dosage was 3 mg/kg+30 mg/kg or 3 mg/kg+100 mg/kg for the pravastatin+troglitazone group, and 1.5 mg/kg+30 mg/kg for the fluvastatin+troglitazone group.
Namely, the aortic arch was stained with ORO to prepare en face specimens. The percentage area which was positive to the ORO stain over the whole area was measured to represent the degree of aortic lesion.

[2] = tested on: WHHL rabbits; assay: Example 1: stenosis of the coronary arteries in WHHL rabbits; assay type: in vivo; conditions: week 32
Experimental: WHHL rabbits [2-3 months of age, the Watanabe heritable hyperlipidemic rabbit described in Biochimica et Biophysica Acta, 960, 294-302 (1988)] were randomly assigned to a control group (7 animals, group A), a group receiving pravastatin alone (5 animals, Group B), a group receiving troglitazone alone (7 animals, Group C), and a group receiving a combination of both active substances (6 animals, Group D). Pravastatin was administered orally by gavage at a dose of 50 mg/kg/day once-daily and troglitazone was given in the diet, containing 100 mg/kg of the substance for 32 weeks. The ingested amount was limited to a daily 120 g per rabbit. Blood was withdrawn from the animal immediately before starting the study and 4, 8, 12, 16, 20, 24, 28 and 32 weeks after starting the study and the total cholesterol levels (mg/dl) were determined for each blood sample. The levels are reported as a percentage (%) of the levels measured immediately before starting the study. The animals were sacrificed and necropsied at week 32 to examine (a) the percent lesion area (%) in the total, thoracic or abdominal portion of the aorta; (b) the stenosis (%) of the coronary arteries and (c) the incidence (%) of xanthoma in the digital joints.
The values actually measured are represented as an average value±standard error in those Tables.

CC[C@H](C)C(=O)O[C@H]1C[C@H](O)C=C2C=C[C@H](C)[C@H](CC[C@@H](O)C[C@@H](O)CC(=O)O)[C@H]21 [Pravastatin, sodium 1,2,6,7,8,8a-hexahydro-6,8-tetrahydroxy-2-methyl-1-naphthaleneheptanoate]
Stained Area, % of Control ([1]; 3 mg/kg): 106% | Stained Area ORO ([1]; aortic arch, 3 mg/kg in drinking water, 4 weeks, control 1.82 ± 0.44): 1.93 ± 0.33% | regression of aortic lesions ([1]; pravastatin 3 mg/kg, fluvastatin 1.5 mg/kg, troglitazone 30 mg/kg alone, combinations): no regression of aortic lesions | Coronary stenosis, RCA (right coronary artery) ([2]; control 13): 18% | Coronary stenosis, LAD (left anterior descending artery) ([2]; control 24): 16% | Coronary stenosis, LSP (left septal artery) ([2]; control 40): 9% | Coronary stenosis, LCX (left circumflex artery) ([2]; control 47): 34% | Coronary stenosis, MLC (main left coronary artery) ([2]; control 61): 71% | Coronary stenosis, MRC (main right coronary artery) ([2]; control 79): 81%
